Source: publication PMC11449324, “Functional comparison of human and murine equilibrative nucleobase transporter 1” (PLOS ONE, 2024)
Where two headings read alike, the source gives them in different places.

Experiments:
[1] = biological target: T1, mENBT1 (slc43a3-encoded mouse ENBT1) (Mus musculus, UniProt A2AVZ9); test: Radiolabelled substrate uptake (oil-stop, 2 s) in HEK293-mslc43a3 cells; assay type: cell-based
T1 construct: Oligonucleotides corresponding to the coding region of SLC43A3 (NM_001278201) or slc43a3 (NM_021398); expressed in transfected cells; HEK293-mslc43a3
T1 sequence (A2AVZ9 1-502): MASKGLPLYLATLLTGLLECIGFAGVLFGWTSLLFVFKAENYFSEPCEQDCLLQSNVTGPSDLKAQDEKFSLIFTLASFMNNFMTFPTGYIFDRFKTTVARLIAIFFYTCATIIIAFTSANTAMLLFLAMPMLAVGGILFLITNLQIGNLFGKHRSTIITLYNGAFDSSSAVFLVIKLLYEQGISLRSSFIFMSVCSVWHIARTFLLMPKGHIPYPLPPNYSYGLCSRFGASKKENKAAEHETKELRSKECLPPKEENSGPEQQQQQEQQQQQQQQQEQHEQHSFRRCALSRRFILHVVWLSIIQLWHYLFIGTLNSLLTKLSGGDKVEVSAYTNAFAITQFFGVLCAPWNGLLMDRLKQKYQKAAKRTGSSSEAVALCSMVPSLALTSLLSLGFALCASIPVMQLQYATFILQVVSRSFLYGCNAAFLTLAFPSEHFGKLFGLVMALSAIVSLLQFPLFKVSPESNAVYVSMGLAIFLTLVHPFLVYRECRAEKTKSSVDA
Experimental: (§1) Harvested cells were suspended in nominally sodium-free N-methyl-D-glucamine (NMG) buffer (140 mM NMG, 5 mM KCl, 4.2 mM KHCO3, 0.36 mM K2HPO4, 0.44 mM KH2PO4, 0.5 mM MgCl2, 1.3 mM CaCl2, 10 mM HEPES, pH 7.4), to minimize potential contribution of sodium-dependent concentrative nucleoside transporter-mediated uptake. Additionally, cells were incubated for 15 minutes at room temperature with 10 μM dipyridamole (DY), an equilibrative nucleoside transporter (ENT) inhibitor, to block equilibrative nucleoside transporter–mediated uptake. The substrate uptake assay was initiated by adding 250 μL cell suspension to 250 μL [^3H] labeled substrate, layered over 21:4 silicone:mineral oil (200 μL) in 1.5 mL microcentrifuge tubes (conducted at room temperature). The uptake reaction was terminated after 2 seconds by centrifugation of the cells through the oil layer at ~10,000 g. […] The resulting cell pellet was digested in 250 μL 1 M NaOH overnight (~16 hours), with 220 μL aliquots of digested cells assessed for radioactive content using standard liquid scintillation counting techniques in a Beckman Coulter LS6500 scintillation system (Brea, CA).
(§2) In transfected-HEK293 cell lines, total uptake was defined as uptake of radiolabeled substrate in cells overexpressing recombinant hENBT1 or mENBT1. […] ENBT1-mediated uptake was calculated as total uptake minus the non-mediated uptake. […]

L1210 cells = test: MTT cell viability assay, L1210; assay type: cell-based, murine; conditions: Mus musculus, L1210, 48 h, single-phase curve
Experimental: (§3) Transfected-HEK293, MOLT-4, and L1210 cells were seeded into 24-well plates at a density of 1.1x10^5 cells per well in complete culture medium. […] Medium containing no cells was used to determine spontaneous MTT reduction (background). In transfected-HEK293 cells, media was removed via a vacuum-powered aspirator and replaced with 150 μL of Dulbecco’s phosphate buffered saline (DPBS—137 mM NaCl, 2.7 mM KCl, 6.3 mM Na2HPO4, 1.5 mM KH2PO4, 0.5 mM MgCl2, 0.9 mM CaCl2, pH 7.4) containing MTT (1 mg/mL) for 90 minutes at 37°C. In MOLT-4 and L1210, cell suspension was transferred to 1.5 mL microcentrifuge tubes and centrifuged for 10 minutes at 3000 rcf. Following centrifugation, media was removed via gentle pipetting and replaced with 150 μL of DPBS containing MTT (1 mg/mL) for 90 minutes at 37°C. Microcentrifuge tubes were centrifuged again for 15 minutes at 23,500 rcf, and then DPBS containing MTT was removed via a vacuum-powered aspirator. The resultant formazan crystals were solubilized in 500 μL of DMSO and transferred to a 96-well plate in 200 μL duplicates. Absorbance was measured at 570 nm, in a SpectraMax® i3x Multi-Mode Detection Platform (Molecular Devices, San Jose, CA). After background subtraction, % cell viability was calculated as the ratio of absorbance in the presence of test compound to that measured with vehicle alone (X 100).

[2] = biological target: T2, hENBT1 (SLC43A3-encoded human ENBT1) (Homo sapiens, UniProt Q8NBI5); test: Radiolabelled substrate uptake (oil-stop, 2 s) in HEK293-hSLC43A3 cells; assay type: cell-based
T2 construct: Oligonucleotides corresponding to the coding region of SLC43A3 (NM_001278201) or slc43a3 (NM_021398); expressed in transfected cells; HEK293-hSLC43A3
T2 sequence (Q8NBI5 1-491): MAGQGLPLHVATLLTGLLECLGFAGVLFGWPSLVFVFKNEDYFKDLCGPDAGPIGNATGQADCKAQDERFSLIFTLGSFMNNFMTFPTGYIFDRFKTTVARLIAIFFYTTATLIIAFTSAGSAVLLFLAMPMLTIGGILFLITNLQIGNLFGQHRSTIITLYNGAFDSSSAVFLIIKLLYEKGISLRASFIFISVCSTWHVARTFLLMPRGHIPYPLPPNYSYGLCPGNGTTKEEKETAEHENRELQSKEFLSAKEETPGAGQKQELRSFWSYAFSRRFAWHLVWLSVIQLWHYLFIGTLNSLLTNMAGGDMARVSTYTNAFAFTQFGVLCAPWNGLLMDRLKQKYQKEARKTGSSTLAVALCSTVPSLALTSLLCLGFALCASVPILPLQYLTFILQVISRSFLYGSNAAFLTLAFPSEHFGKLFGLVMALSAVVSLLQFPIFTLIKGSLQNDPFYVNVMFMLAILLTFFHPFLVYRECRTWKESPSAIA
Experimental: as §1, §2

MOLT-4 cells = test: MTT cell viability assay, MOLT-4; assay type: cell-based, human; conditions: for EC50: Homo sapiens, MOLT-4, 48 h, read-out: first-phase EC50 cell viability
Experimental: as §3

6-MP Km relative to adenine Km [1]: 3 fold
6-MP Vmax relative to adenine Vmax [1]: 3 fold
EC50 (L1210 cells): 600 ± 200 nM
6-MP Km relative to adenine Km [2]: 3 fold
6-MP Vmax relative to adenine Vmax [2]: 3 fold
EC50 (MOLT-4 cells; MTT, biphasic curve (Fig 10A)): 700 ± 200 nM
EC50 (MOLT-4 cells; in absence of DY, solvent DMSO present): 500 ± 100 nM
SMILES: Sc1ncnc2nc[nH]c12 [6-MP, 6-Mercaptopurine]
increase in 6-MP sensitivity on co-treatment with DY (MOLT-4 cells; MOLT-4, 6-MP + DY vs 6-MP + solvent): 2 fold
